# Measured values as given in PMC11459959, “Discovery of new acetamide derivatives of 5-indole-1,3,4-oxadiazol-2-thiol as inhibitors of HIV-1 Tat-mediated viral transcription” (Antimicrobial Agents and Chemotherapy, 2024).
# Tested on: proviral DNA integrated to the host chromosome
# Assay: Integrated proviral DNA, nested Alu-PCR in A3.01 cells
# Format: cell-based, HIV-1
# Details: compounds 5 µM, 40 h after infection
# Experimental: Fig 5 (A) Time-of-addition assay. […] Subsequently, the cells were treated with the compounds at the indicated time points (0, 1, 2, 4, 6, 8, 10, 12, 24, 30, 36, 42, and 48 h) after HIV-1 infection. The final concentrations of compounds are described in Materials and Methods. Viral activity according to the timing of drug addition was measured as F-Luc activity at 54 h after infection. The relative activities are represented as the mean ± SD (n = 3) compared with the activity observed 54 h post-infection. The relative time frames associated with each HIV-1 infection step are defined based on the time frame of susceptibility to the drug that blocks that particular infection step. […] At 16 h after infection, the viral reverse transcription (RT) product (viral cDNA) level was determined by quantitative real-time PCR (RT-qPCR) using gag and 18S rRNA primer sets and represented as the mean ± SD (n = 3) normalized against the amount of the 18S rRNA compared with the DMSO control. **P < 0.01 compared with the vehicle (DMSO). (C) An in vitro integrase (IN) assay was performed with 10 µM of the indicated compounds following the manufacturer’s protocol. **P < 0.01 compared with vehicle (DMSO). (D) A3.01 cells were infected with HIV-1 upon treatment with the indicated compounds (5 µM) and ARVs (EFV and DTG) as the experimental controls. At 40 h after infection, cellular chromosomal DNA was purified, and the integrated proviral DNA was detected through nested Alu-PCR amplification.
# The activity of HIV-1 RT was determined as previously described with some minor modifications ([66][–][68]). In brief, HIV-1NL4-3 obtained from plasmid transfection was treated with DNase I (2.5 U/mL) for 2 h at 37°C to remove the plasmid DNA. […] Sixteen hours after infection, the cell cytosolic DNA was isolated under RNase A treatment, and the RT products (cytosolic viral cDNA) were quantified using RT-qPCR and the following primers: gag forward, 5′-[…]-3′, gag reverse, 5′-[…]-3′; 18S rRNA forward, 5′-[…]-3′, 18S rRNA reverse, 5′-[…]-3′. The relative levels of RT products were analyzed using the ΔΔCt-method, as described above. In vitro integrase activity was determined using an HIV-1 integrase assay kit (XpressBio, Frederick, MD, USA) as previously described ([12]). In brief, a 96-well plate coated with donor substrate DNA was blocked, and HIV-1 integrase was then added to the plate. Subsequently, the compounds and target substrate DNA were added to the plate and incubated for 30 min at 37°C. The plate was washed and subsequently incubated with horse radish peroxidase. Integrase activity was measured by the peroxidase activity with the substrate at an optical density of 450 nm. The experiment was performed in triplicates. Detection of integrated proviral DNA was performed as previously described ([69]) with some minor modifications. […] Chromosomal DNA was purified using the G-Spin DNA extraction kit (Intron Bio Tech, Seongnam-si, Gyeonggi-do, Republic of Korea). The integrated proviral HIV-1 DNA was detected by nested Alu-PCR amplification using the following primers: first round PCR, Alu forward, 5′-[…]-3′, pol reverse, 5′-[…]-3′; second round PCR, gag forward, 5′-[…]-3′, pol reverse. gapdh was used as the control gene.
row,Structure (SMILES),nested Alu-PCR band for integrated proviral DNA
1,"Cc1[nH]c2ccc(-c3nnc(SCC(=O)N4CCCC4)o3)cc2c1C [Compound 13, 2-((5-(2,3-Dimethyl-1H-indol-5-yl)-1,3,4-oxadiazol-2-yl)thio)-1-(pyrrolidin-1-yl)ethan-1-one]",observed
2,"O=C1Nc2ccc(Cl)cc2[C@@](C#CC2CC2)(C(F)(F)F)O1 [EFV, efavirenz, reference compound]",not detected
3,"C[C@@H]1CCO[C@H]2Cn3cc(C(=O)NCc4ccc(F)cc4F)c(=O)c(O)c3C(=O)N12 [DTG, dolutegravir, reference compound]",not detected
4,"Cc1[nH]c2ccc(-c3nnc(SCC(=O)N4CCCCC4)o3)cc2c1C [Compound 9, 2-((5-(2,3-Dimethyl-1H-indol-5-yl)-1,3,4-oxadiazol-2-yl)thio)-1-(piperidin-1-yl)ethan-1-one]",observed
